Patent US20090176811A1, “Substituted 5,6,7,8-Tetrahydro-pyrido[4,3-d]pyrimidine-2-yl Compounds and 5,6,7,8-Tetrahydro-quinazoline-2-yl Compounds” (GRUENENTHAL GmbH, priority 2004, published 2009)

tested on: batrachotoxin (BTX) binding site of the sodium channel; assay: Affinity for the batrachotoxin (BTX) binding site of the sodium channel ([3H]-Batrachotoxinin A20 benzoate, rat cerebrocortex synaptosomes); settings: [3H]-Batrachotoxinin A20 benzoate 10 nM, test concentration not given

In order of falling BTX inhibition:
1. CC(C)(C)c1ccc(C(=O)Nc2ncc3c(n2)CCN(C(=O)c2csc4ccccc24)C3)cc1 [Example 184, N-[6-(benzo[b]thiophene-3-carbonyl)-5,6,7,8-tetrahydro-pyrido[4,3-d]pyrimidin-2-yl]-4-tert-butyl-benzamide]  87
2. Cc1cc(C(=O)NC2CCc3nc(NC(=O)c4cccs4)ncc3C2)ccc1Br (stereo not shown) [Example 115, thiophene-2-carboxylic acid [6-(4-bromo-3-methyl-benzoylamino)-5,6,7,8-tetrahydro-quinazolin-2-yl]-amide]  82
3. Cc1cc(C)c(C)c(S(=O)(=O)N2CCc3nc(NC(=O)c4cccs4)ncc3C2)c1C [Example 99, thiophene-2-carboxylic acid [6-(2,3,5,6-tetramethyl-benzenesulfonyl)-5,6,7,8-tetrahydro-pyrido[4,3-d]pyrimidin-2-yl]-amide]  78
4. Cc1ccc(C(=O)N2CCc3nc(NC(=O)c4ccc(C(C)(C)C)cc4)ncc3C2)cc1[N+](=O)[O-] [Example 92, 4-tert-butyl-N-[6-(4-methyl-3-nitro-benzoyl)-5,6,7,8-tetrahydro-pyrido[4,3-d]pyrimidin-2-yl]-benzamide]  75
5. COc1ccccc1C(=O)Nc1ncc2c(n1)CCN(S(=O)(=O)c1c(C)cc(OC)c(C)c1C)C2 [Example 158, 2-methoxy-N-[6-(4-methoxy-2,3,6-trimethyl-benzenesulfonyl)-5,6,7,8-tetrahydro-pyrido[4,3-d]pyrimidin-2-yl]-benzamide]  74
6. Cc1ccc(C(=O)Nc2ncc3c(n2)CCN(S(=O)(=O)c2cc(F)ccc2C)C3)cc1 [Example 107, N-[6-(5-fluoro-2-methyl-benzenesulfonyl)-5,6,7,8-tetrahydro-pyrido[4,3-d]pyrimidin-2-yl]-4-methyl-benzamide]  73
7. O=C(Nc1ncc2c(n1)CCN(C(=O)Cc1ccc(Cl)cc1)C2)c1ccc(Cl)c(Cl)c1 [Example 126, 3,4-dichloro-N-{6-[2-(4-chloro-phenyl)-acetyl]-5,6,7,8-tetrahydro-pyrido[4,3-d]pyrimidin-2-yl}-benzamide]  70
8. O=C(Nc1ncc2c(n1)CCN(S(=O)(=O)c1ccc(Cl)cc1)C2)c1ccc(Cl)c(Cl)c1 [Example 71, 3,4-dichloro-N-[6-(4-chloro-benzenesulfonyl)-5,6,7,8-tetrahydro-pyrido[4,3-d]pyrimidin-2-yl]-benzamide]  69
9. O=C(Nc1ncc2c(n1)CCN(S(=O)(=O)c1ccc(OC(F)(F)F)cc1)C2)c1ccc(Cl)c(Cl)c1 [Example 134, 3,4-dichloro-N-[6-(4-trifluoromethoxy-benzenesulfonyl)-5,6,7,8-tetrahydro-pyrido[4,3-d]pyrimidin-2-yl]-benzamide]  64
10. O=C(Nc1ncc2c(n1)CCN(C(=O)C1CCc3ccccc3C1)C2)c1cccc(F)c1 (stereo not shown) [Example 141, 3-fluoro-N-[6-(1,2,3,4-tetrahydro-naphthalene-2-carbonyl)-5,6,7,8-tetrahydro-pyrido[4,3-d]pyrimidin-2-yl]-benzamide]  63
11. COc1ccccc1C(=O)Nc1ncc2c(n1)CCN(S(=O)(=O)c1ccc(Cl)s1)C2 [Example 86, N-[6-(5-chloro-thiophene-2-sulfonyl)-5,6,7,8-tetrahydro-pyrido[4,3-d]pyrimidin-2-yl]-2-methoxy-benzamide]  62
12. CCCC(=O)Nc1ncc2c(n1)CCC(NS(=O)(=O)c1ccc(C(C)(C)CC)cc1)C2 (stereo not shown) [Example 167, N-{6-[4-(1,1-dimethyl-propyl)-benzenesulfonylamino]-5,6,7,8-tetrahydro-quinazolin-2-yl}-butyramide]  51
13. Cc1ccc([N+](=O)[O-])cc1S(=O)(=O)N1CCc2nc(NC(=O)c3ccccc3F)ncc2C1 [Example 150, 2-fluoro-N-[6-(2-methyl-5-nitro-benzenesulfonyl)-5,6,7,8-tetrahydro-pyrido[4,3-d]pyrimidin-2-yl]-benzamide]  49
14. COc1cccc(C(=O)Nc2ncc3c(n2)CCN(C(=O)c2cccc(OC(F)(F)F)c2)C3)c1 [Example 199, 3-methoxy-N-[6-(3-trifluoromethoxy-benzoyl)-5,6,7,8-tetrahydro-pyrido[4,3-d]pyrimidin-2-yl]-benzamide]  48
15. O=C(Nc1ncc2c(n1)CCN(C(=O)c1sc3ccccc3c1Cl)C2)c1ccccc1 [Example 120, N-[6-(3-chloro-benzo[b]thiophene-2-carbonyl)-5,6,7,8-tetrahydro-pyrido[4,3-d]pyrimidin-2-yl]-benzamide]  48
16. O=C(Nc1ncc2c(n1)CCC(NS(=O)(=O)c1ccc3c(c1)CN(C(=O)C(F)(F)F)CC3)C2)c1cccs1 (stereo not shown) [Example 147, thiophene-2-carboxylic acid {6-[2-(2,2,2-trifluoro-acetyl)-1,2,3,4-tetrahydro-isoquinoline-7-sulfonylamino]-5,6,7,8-tetrahydro-quinazolin-2-yl}-amide]  48
17. O=C(Nc1ncc2c(n1)CCC(NS(=O)(=O)c1cc(Cl)sc1Cl)C2)c1cccs1 (stereo not shown) [Example 180, thiophene-2-carboxylic acid [6-(2,5-dichloro-thiophene-3-sulfonylamino)-5,6,7,8-tetrahydro-quinazolin-2-yl]-amide]  46
18. Cc1oc(-c2ccccc2)cc1C(=O)N1CCc2nc(NC(=O)c3ccccc3F)ncc2C1 [Example 137, 2-fluoro-N-[6-(2-methyl-5-phenyl-furan-3-carbonyl)-5,6,7,8-tetrahydro-pyrido[4,3-d]pyrimidin-2-yl]-benzamide]  43
19. CCCC(=O)Nc1ncc2c(n1)CCC(NC(=O)C=Cc1cccc(C(F)(F)F)c1)C2 (stereo not shown) [Example 168, N-(2-butyrylamino-5,6,7,8-tetrahydro-quinazolin-6-yl)-3-(3-trifluoromethyl-phenyl)-acrylamide]  39
20. CCCC(=O)Nc1ncc2c(n1)CCC(NC(=O)c1ccc(Cc3ccccc3)o1)C2 (stereo not shown) [Example 133, 5-benzyl-furan-2-carboxylic acid (2-butyrylamino-5,6,7,8-tetrahydro-quinazolin-6-yl)-amide]  39
21. CCOc1ccccc1C(=O)Nc1ncc2c(n1)CCN(S(=O)(=O)c1ccccc1C(=O)OC)C2 [Example 82, 2-[2-(2-ethoxy-benzoylamino)-7,8-dihydro-5H-pyrido[4,3-d]pyrimidine-6-sulfonyl]-benzoic acid methyl ester]  38
22. COc1ccccc1C(=O)Nc1ncc2c(n1)CCN(C(=O)COCc1ccccc1)C2 [Example 195, N-[6-(2-benzyloxy-acetyl)-5,6,7,8-tetrahydro-pyrido[4,3-d]pyrimidin-2-yl]-2-methoxy-benzamide]  35
23. O=C(Nc1ncc2c(n1)CCN(S(=O)(=O)c1cccs1)C2)c1ccc(F)c(F)c1 [Example 72, 3,4-difluoro-N-[6-(thiophene-2-sulfonyl)-5,6,7,8-tetrahydro-pyrido[4,3-d]pyrimidin-2-yl]-benzamide]  31
24. O=C(Nc1ncc2c(n1)CCN(C(=O)c1c(F)cccc1Cl)C2)c1cccc(Cl)c1 [Example 127, 3-chloro-N-[6-(2-chloro-6-fluoro-benzoyl)-5,6,7,8-tetrahydro-pyrido[4,3-d]pyrimidin-2-yl]-benzamide]  30
25. Cc1ccc(C)c(CC(=O)NC2CCc3nc(NC(=O)c4ccc(F)cc4)ncc3C2)c1 (stereo not shown) [Example 163, N-{6-[2-(2,5-dimethyl-phenyl)-acetylamino]-5,6,7,8-tetrahydro-quinazolin-2-yl}-4-fluoro-benzamide]  28
